Test results: PMC2841147, “The inhaled phosphodiesterase 4 inhibitor GSK256066 reduces allergen challenge responses in asthma” (Respiratory Research, 2010)
Read-outs that look alike come from different tables or passages of the source. Each block holds one molecule with its values, some of them ahead of it.

How the values were obtained:
[1] = test system: steroid naive atopic asthmatics; assay: Inhaled allergen challenge (EAR and LAR) after 7 days treatment; assay type: in vivo, human; details: inhaled 87.5 μg once daily for 7 days
Experimental: (§1) This was a two centre, double-blind, randomised, placebo controlled, cross-over study. Eligible subjects were randomised to receive GSK256066 87.5 μg or matching placebo using an Accuhaler™ once daily for 7 days - see Fig 1. The washout period was 14 - 21 days between treatment periods. Dosing was performed under supervision at the sites on Day 1 and Day 7. On days 2-6 subjects were instructed to take the study medication at the same time of day, and were required to complete a diary card to document the time that medication was taken. Heart rate, blood pressure, ECGs, FEV1 and exhaled nitric oxide (FeNO) were measured pre-dose on days 1 and 7, and at 1 hr post-dose. On day 7, an inhaled allergen challenge was subsequently performed after the 1 hour post-dose FEV1 and FeNO measurements. Methacholine challenge was then performed at 24 hours post allergen challenge. Adverse events and beta agonist use were monitored throughout the study with the aid of diary cards.
Bronchial challenges were performed as we have previously described using a Mefar Dosimeter (Mefar-Bologna). Allergen for skin prick tests (Soluprick SQ, Alk Abelló (UK) Ltd) was stored at 4°C; each subject was assessed for sensitivity to house dust mite, cat, grass pollen, and positive and negative controls. The allergen for inhalation was selected according to the largest skin test wheal (positive >3 mm) and clinical history. Fresh solutions of allergen were made up in 0.9% saline in doubling concentrations from 250 SQ-U/ml to 32 000 SQ-U/ml. At screening, incremental doses of allergen were inhaled until an early asthmatic response (EAR) was observed, defined as a fall in FEV1 of ≥ 20% from the post saline value, on at least one occasion, between 5 and 30 minutes after the final concentration of allergen. The late asthmatic response (LAR) was defined as a fall in FEV1 of ≥ 15% from the post saline value, on at least three occasions, two of which must be consecutive, between 4 and 10 hours after the final concentration of allergen. During the treatment periods, the total dose of allergen required to cause an EAR and LAR was administered as a single bolus dose.
Minimum LAR was derived as the minimum FEV1 value over 4-10 hrs post allergen challenge. Minimum EAR was derived as the minimum FEV1 over 0-2 hrs post allergen challenge. Weighted mean LAR and EAR endpoints were derived by calculating the AUC over the relevant time interval using the linear trapezoidal rule and dividing by the time interval. […] Day 7 FEV1 data (pre-dose and 1 h post-dose) were also analysed using a mixed effects model, adjusting for the fixed effects treatment, period and Day 1 pre-dose FEV1 and the random effect subject. […]

[2] = test system: steroid naive atopic asthmatics; assay: Methacholine challenge 24 hours post allergen challenge; assay type: in vivo, human
Experimental: as §1, with “cards. […]” for “cards.”
Minimum LAR was derived as the minimum FEV1 value over 4-10 hrs post allergen challenge. […] Day 7 FEV1 data (pre-dose and 1 h post-dose) were also analysed using a mixed effects model, adjusting for the fixed effects treatment, period and Day 1 pre-dose FEV1 and the random effect subject. […] FeNO change from baseline ratio at all time points were analysed following a loge-transformation to compare GSK256066 with placebo. […]

[3] = test system: steroid naive atopic asthmatics; assay: Lung function (FEV1) pre-dose and 1 hr post-dose; assay type: in vivo, human; details: for FEV1: mean; for FEV1 adjusted treatment difference GSK256066 vs placebo: adjusted mean (95% confidence intervals)
Experimental: as §1
(§2) Minimum LAR was derived as the minimum FEV1 value over 4-10 hrs post allergen challenge. Minimum EAR was derived as the minimum FEV1 over 0-2 hrs post allergen challenge. Weighted mean LAR and EAR endpoints were derived by calculating the AUC over the relevant time interval using the linear trapezoidal rule and dividing by the time interval. The sample size was based on a power calculation using our previous allergen challenge data; in order to detect a 50% attenuation of the minimum LAR, with 90% power at the two-sided 5% significance level, 23 evaluable were required. Statistical analysis was performed on each of the absolute change from baseline LAR and EAR endpoints to compare GSK256066 with placebo. A mixed effects model was fitted with the factors treatment, period and Day 7 post-saline FEV1 as fixed effects and subject as a random effect. Absolute change from post-saline FEV1 data over planned relative time were obtained from a repeated measures statistical analysis, adjusting for the terms of period, treatment group, period-level post-saline baseline, subject-level post-saline baseline, planned relative time, treatment group by planned relative time interaction and period-level post-saline baseline by planned relative time interaction as fixed effects and subject as a random effect. Day 7 FEV1 data (pre-dose and 1 h post-dose) were also analysed using a mixed effects model, adjusting for the fixed effects treatment, period and Day 1 pre-dose FEV1 and the random effect subject. Statistical analysis was performed on the log2-transformed values of the provocative concentration of methacholine required to produce a 20% reduction in FEV1 (PC20) to compare GSK256066 with placebo. A mixed effects model was fitted with the factors treatment and period treated as fixed effects and subject as a random effect. FeNO change from baseline ratio at all time points were analysed following a loge-transformation to compare GSK256066 with placebo. A mixed effects model was fitted with the fixed effects period, treatment group, subject-level loge-transformed baseline, period-level loge-transformed baseline, planned relative time, treatment group by planned relative time interaction term and period-level loge-transformed baseline by planned relative time interaction term and the random effect subject.

[4] = test system: steroid naive atopic asthmatics; assay: Exhaled nitric oxide (FeNO); assay type: in vivo, human; details: for Exhaled nitric oxide: mean
Experimental: as §1
FeNO was measured using the Ecomedics AG analyser CLD 88 at a flow of 50 ml/s. Three acceptable readings were recorded from each subject and the mean was used for analysis.
as §2, with “Statistical analysis was performed on the log2-transformed values of the provocative concentration of methacholine required to produce a 20% reduction in FEV1 (PC20) to compare GSK256066 with placebo. A mixed effects model was fitted with the factors treatment and period treated as fixed effects and subject as a random effect.” left out, “A mixed effects model was fitted with the fixed effects period, treatment group, subject-level loge-transformed baseline, period-level loge-transformed baseline, planned relative time, treatment group by planned relative time interaction term and period-level loge-transformed baseline by planned relative time interaction term and the random effect subject.” left out

[5] = Plasma pharmacokinetics after inhalation (HPLC/MS/MS); assay type: in vivo, human; details: for Tlast / Tmax: median (range); for AUC(0-t): 87.5 ug
Experimental: On days 1 and 7, blood samples were collected at pre-dose, 10 min, 30 min, 45 min and 1, 2, 3, 4, 6, 8, 10, 11, 12 and 24 hrs post dose for measurement of the levels of GSK256066 in plasma. […] These pharmacokinetic analyses were performed by protein precipitation, followed by HPLC/MS/MS. The lower limit of quantification (LLOQ) for GSK256066 and GSK614917 was 5 pg/mL, with an upper limit of quantification of 2000 pg/mL
Values for the following pharmacokinetic were estimated directly from raw plasma concentration data: maximum plasma concentration (Cmax), time of maximum observed concentration (Tmax), and time of the last observable concentration (Tlast). Area under the plasma concentration-time curve from time zero to Tlast (AUC (0-t)) was estimated for subjects with at least 3 consecutive observable concentration values with the log up/linear down trapezoidal method using Winnonlin professional version 5.2 (Pharsight Corporation, Cary, NC, USA).

[6] = test system: steroid naive atopic asthmatics; assay: Safety and tolerability (adverse events); assay type: in vivo, human; details: inhaled 87.5 mcg once per day for 7 days
Experimental: as §1

PDE4 = details: cited from earlier work
patients with COPD = test system: patients with COPD; design: method as in PMID 19213793; details: inhaled, after 6 weeks of treatment; cited from earlier work
[7] = design: method as in PMID 17192499; details: cited from earlier work
asthmatic subjects = test system: asthmatic subjects; design: method as in PMID 16083782; details: orally administered; cited from earlier work

- Subjects with plasma concentrations above the LLOQ ([5]; Day 1, LLOQ 5 pg/mL): 18 out of 22
- Cmax ([5]; Day 1, inhaled 87.5 μg, plasma, geometric mean (CV%), N = 18): 18.3 (68) Pg/mL
- Tlast ([5]; Day 1): 3.0 (0.5-6.0) h
- Subjects with drug levels below the LLOQ after 4 hrs post dose ([5]; Day 1, of the 22 subjects, LLOQ 5 pg/mL): 18 subjects
- Subjects with drug levels below the LLOQ after 4 hrs post dose ([5]; Day 7, LLOQ 5 pg/mL): 10 of the 19
- Subjects with levels above the LLOQ after 12 hrs ([5]; Day 7, LLOQ 5 pg/mL): 1 subject
- Subjects with plasma concentrations above the LLOQ ([5]; Day 7, LLOQ 5 pg/mL): 17 out of 19
- Cmax ([5]; Day 7, inhaled 87.5 μg once daily, plasma, geometric mean (CV%), n = 17): 17.3 (63) Pg/mL
- Tlast ([5]; Day 7): 4.0 (1.0-24) h
- Tmax ([5]; Day 7): 1.0 (0.17-11.0) h
- Tlast range in this study ([5]; days 1 and 7): 0.5 to 24 h
- AUC(0-t) ([5]; human, plasma, inhaled or intranasal, Day 1, inhaled 87.5 μg, plasma, geometric mean (CV%), N = 18): 0.0368 ng·h/mL
- AUC(0-t) ([5]; human, plasma, inhaled or intranasal, Day 7, inhaled 87.5 μg once daily, plasma, geometric mean (CV%), n = 17): 0.0648 ng·h/mL
- Cmax ([5]; human, plasma, inhaled or intranasal, 87.5 μg, on both days 1 and 7, inhaled, read-out: Mean Cmax): < 0.02 ng/mL
- Tmax ([5]; human, plasma, inhaled, 87.5 μg, Day 1, read-out: Tmax): 1 h
SMILES: COc1cccc(Nc2c(C(N)=O)cnc3c(C)cc(S(=O)(=O)c4cccc(C(=O)N(C)C)c4)cc23)c1 [GSK256066]
- EAR: inhibition of the fall in weighted mean FEV1 compared to placebo ([1]; 0-2 hrs post allergen, p = 0.014): 57.2%
- LAR: attenuation of the fall in weighted mean FEV1 compared to placebo ([1]; 4-10 hrs post allergen, p = 0.005): 34.3%
- EAR: inhibition of the fall in minimum FEV1 compared to placebo ([1]; minimum FEV1 0-2 hrs post allergen, p = 0.014): 40.9%
- LAR: attenuation of the fall in minimum FEV1 compared to placebo ([1]; minimum FEV1 4-10 hrs post allergen, p = 0.007): 26.2%
- Methacholine PC20 doubling dose difference vs placebo, geometric mean (95% CI) [2]: -0.31 (-1.18 to 0.57)
- Methacholine PC20 ([2]; after 7 days treatment, placebo 0.39): 0.31 mg/mL
- FEV1 ([3]; Day 1 Pre-dose): 3.29 (2.88 to 3.69) L
- FEV1 adjusted treatment difference GSK256066 vs placebo ([3]; Day 7 1 hr post-dose): 0.09 (-0.08 to 0.27) L
- FEV1 ([3]; Day 7 1 hr post-dose): 3.47 (3.04 to 3.90) L
- FEV1 adjusted treatment difference GSK256066 vs placebo ([3]; Day 7 Pre-dose): 0.09 (-0.03 to 0.20) L
- FEV1 ([3]; Day 7 Pre-dose): 3.36 (2.94 to 3.79) L
- Exhaled nitric oxide ([4]; Day 1 Pre-dose): 39.9 (31.0 to 51.3) ppb
- Exhaled nitric oxide adjusted treatment ratio GSK256066 vs placebo ([4]; Day 7 1 hr post-dose, adjusted mean (95% confidence intervals)): 1.03 (0.88 to 1.20)
- Exhaled nitric oxide ([4]; Day 7 1 hr post-dose): 36.1 (28.1 to 46.3) ppb
- Exhaled nitric oxide ([4]; Day 7 Pre-dose): 34.7 (26.7 to 45.0) ppb
- Nausea and/or gastro-intestinal side effects [6]: lack of nausea and/or gastro-intestinal side effects
- Tolerability / adverse effects [6]: well tolerated
- Affinity and binding mode at PDE4 (PDE4): very high affinity, slow- and tight-binding inhibitor
- Selectivity for PDE4 over other PDEs such as 1, 2, 3, 5, 6 and 7 (PDE4): highly selective

SMILES: Cc1ccc(O)c(C(=O)N[C@H]2CC[C@@H](NC(=O)c3cc(F)cnc3Oc3ccc(F)c(F)c3)CC2)c1 [UK-500,001]
- Effect on FEV1 (patients with COPD): no effect

SMILES: O=C(Nc1c(Cl)c[n+]([O-])cc1Cl)c1ccc(OC(F)F)c(OCC2CC2)c1 [roflumilast N-Oxide]
- Plasma levels of the active metabolite compared with roflumilast Cmax ([7]; after oral roflumilast): even higher

SMILES: O=C(Nc1c(Cl)cncc1Cl)c1ccc(OC(F)F)c(OCC2CC2)c1 [roflumilast]
- Inhibition of the maximal fall in the EAR (asthmatic subjects): 14%
- Inhibition of the maximal fall in the LAR (asthmatic subjects): 33%
- Mean Cmax ([7]; administered orally): over 2,000 pg/ml
